Experimental data: ChEMBL document CHEMBL1909046, “DrugMatrix in vitro pharmacology data”

Tests used:
[1] = DRUGMATRIX: Nicotinic Acetylcholine radioligand binding (ligand: [125I] Epibatidine); type: cell membranes, Membrane; details: imr-32; Not Active = under 50% inhibition at 10 µM
Glucocorticoid receptor = biological target: T1, Glucocorticoid receptor (Homo sapiens, UniProt P04150); details: hela s3; also: in other assays of this panel Not Active means under 50% inhibition at 10 µM
T1 sequence (P04150 whole entry): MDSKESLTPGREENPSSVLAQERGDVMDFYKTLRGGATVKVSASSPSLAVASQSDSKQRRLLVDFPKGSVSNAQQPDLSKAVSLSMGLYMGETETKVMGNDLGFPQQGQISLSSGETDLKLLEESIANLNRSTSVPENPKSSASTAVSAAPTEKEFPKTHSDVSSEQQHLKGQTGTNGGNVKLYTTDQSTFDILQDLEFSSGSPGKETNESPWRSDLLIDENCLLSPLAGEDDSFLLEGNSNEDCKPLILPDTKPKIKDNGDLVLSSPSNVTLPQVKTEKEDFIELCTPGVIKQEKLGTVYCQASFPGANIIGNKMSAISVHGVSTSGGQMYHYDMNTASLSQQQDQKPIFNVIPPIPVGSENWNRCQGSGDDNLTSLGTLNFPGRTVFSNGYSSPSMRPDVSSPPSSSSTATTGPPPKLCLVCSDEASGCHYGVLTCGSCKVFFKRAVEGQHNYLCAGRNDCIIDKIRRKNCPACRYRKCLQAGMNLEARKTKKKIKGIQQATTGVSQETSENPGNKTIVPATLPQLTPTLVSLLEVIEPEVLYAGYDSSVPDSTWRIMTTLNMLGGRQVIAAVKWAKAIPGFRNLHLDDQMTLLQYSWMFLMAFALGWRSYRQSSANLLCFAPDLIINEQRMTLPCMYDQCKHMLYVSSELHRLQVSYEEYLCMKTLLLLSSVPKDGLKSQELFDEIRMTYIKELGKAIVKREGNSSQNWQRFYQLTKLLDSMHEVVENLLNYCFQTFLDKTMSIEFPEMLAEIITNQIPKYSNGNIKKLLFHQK

[2] = biological target: Platelet-activating factor receptor (Homo sapiens, UniProt P25105); type: tissue-based; also: in other assays of this panel Not Active means under 50% inhibition at 10 µM
[3] = biological target: 5-hydroxytryptamine receptor 6 (Homo sapiens, UniProt P50406); type: cell membranes, HeLa, Membrane; also: in other assays of this panel Not Active means under 50% inhibition at 10 µM
Mu-type opioid receptor = Mu-type opioid receptor (Homo sapiens, UniProt P35372); experiment: DRUGMATRIX: Opiate mu (OP3, MOP) radioligand binding (ligand: [3H] Diprenorphine); type: cell membranes, CHO-K1, Membrane; details: Not Active = under 50% inhibition at 10 µM
[4] = biological target: Mitogen-activated protein kinase 14 (Homo sapiens, UniProt Q16539); design: species or system Escherichia coli;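 also: inhibition of p38alpha enzyme activity in a biochemical kinase assay, with myelin basic protein serving as substrate; in other assays of this panel Not Active means under 50% inhibition at 10 µM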
[5] = biological target: T2, Polyunsaturated fatty acid lipoxygenase ALOX15 (Oryctolagus cuniculus, UniProt P12530); experiment: biochemical; type: tissue-based, Reticulocytes
T2 sequence (P12530 whole entry): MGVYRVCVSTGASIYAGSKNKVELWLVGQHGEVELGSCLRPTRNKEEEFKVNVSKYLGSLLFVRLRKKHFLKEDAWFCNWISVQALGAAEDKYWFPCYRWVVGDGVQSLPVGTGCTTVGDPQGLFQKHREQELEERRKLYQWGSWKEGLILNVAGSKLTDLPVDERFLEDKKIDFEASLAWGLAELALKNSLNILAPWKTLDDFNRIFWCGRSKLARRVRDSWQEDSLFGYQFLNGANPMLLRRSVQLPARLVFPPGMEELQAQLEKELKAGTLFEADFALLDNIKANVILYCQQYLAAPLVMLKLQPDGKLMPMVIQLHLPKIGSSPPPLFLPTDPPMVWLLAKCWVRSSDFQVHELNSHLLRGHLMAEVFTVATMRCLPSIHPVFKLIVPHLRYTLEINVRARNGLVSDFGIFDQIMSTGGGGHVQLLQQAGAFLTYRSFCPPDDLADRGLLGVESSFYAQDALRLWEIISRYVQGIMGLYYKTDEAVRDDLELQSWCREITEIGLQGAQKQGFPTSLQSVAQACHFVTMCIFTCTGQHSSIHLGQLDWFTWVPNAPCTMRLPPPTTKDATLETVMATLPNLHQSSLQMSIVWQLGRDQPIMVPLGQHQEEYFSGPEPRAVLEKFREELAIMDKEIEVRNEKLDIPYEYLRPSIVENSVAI

Sequence of Platelet-activating factor receptor (P25105 whole entry): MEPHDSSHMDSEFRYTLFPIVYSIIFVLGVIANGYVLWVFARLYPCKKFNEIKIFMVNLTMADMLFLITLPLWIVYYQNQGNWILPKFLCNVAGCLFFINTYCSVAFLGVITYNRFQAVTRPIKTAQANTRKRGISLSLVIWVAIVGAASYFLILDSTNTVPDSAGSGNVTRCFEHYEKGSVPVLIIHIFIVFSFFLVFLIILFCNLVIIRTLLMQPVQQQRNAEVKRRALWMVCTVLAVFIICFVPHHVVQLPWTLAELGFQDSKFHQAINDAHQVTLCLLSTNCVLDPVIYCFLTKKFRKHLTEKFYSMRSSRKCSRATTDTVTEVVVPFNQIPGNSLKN
Sequence of Mu-type opioid receptor (P35372 whole entry): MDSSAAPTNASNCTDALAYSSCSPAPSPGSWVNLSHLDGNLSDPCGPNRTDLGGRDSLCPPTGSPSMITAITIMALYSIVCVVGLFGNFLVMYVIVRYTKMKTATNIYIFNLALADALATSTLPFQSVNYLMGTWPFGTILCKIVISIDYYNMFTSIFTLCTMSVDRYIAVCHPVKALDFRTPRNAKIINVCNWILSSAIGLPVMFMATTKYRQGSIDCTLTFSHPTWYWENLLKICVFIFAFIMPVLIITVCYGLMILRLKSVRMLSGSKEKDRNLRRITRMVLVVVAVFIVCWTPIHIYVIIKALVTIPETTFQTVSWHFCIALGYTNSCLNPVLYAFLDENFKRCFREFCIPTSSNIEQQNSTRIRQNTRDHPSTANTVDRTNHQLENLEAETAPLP
Sequence of Mitogen-activated protein kinase 14 (Q16539 whole entry): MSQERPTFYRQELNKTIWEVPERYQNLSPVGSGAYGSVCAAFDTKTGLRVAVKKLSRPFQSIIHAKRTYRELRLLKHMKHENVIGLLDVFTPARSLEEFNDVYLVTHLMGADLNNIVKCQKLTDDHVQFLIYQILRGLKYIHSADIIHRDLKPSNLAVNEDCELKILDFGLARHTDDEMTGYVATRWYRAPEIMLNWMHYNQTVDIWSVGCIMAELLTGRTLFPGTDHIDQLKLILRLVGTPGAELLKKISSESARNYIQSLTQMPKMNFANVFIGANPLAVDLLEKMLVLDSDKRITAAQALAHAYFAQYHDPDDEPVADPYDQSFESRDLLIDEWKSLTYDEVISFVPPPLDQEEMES
Sequence of 5-hydroxytryptamine receptor 6 (P50406 whole entry): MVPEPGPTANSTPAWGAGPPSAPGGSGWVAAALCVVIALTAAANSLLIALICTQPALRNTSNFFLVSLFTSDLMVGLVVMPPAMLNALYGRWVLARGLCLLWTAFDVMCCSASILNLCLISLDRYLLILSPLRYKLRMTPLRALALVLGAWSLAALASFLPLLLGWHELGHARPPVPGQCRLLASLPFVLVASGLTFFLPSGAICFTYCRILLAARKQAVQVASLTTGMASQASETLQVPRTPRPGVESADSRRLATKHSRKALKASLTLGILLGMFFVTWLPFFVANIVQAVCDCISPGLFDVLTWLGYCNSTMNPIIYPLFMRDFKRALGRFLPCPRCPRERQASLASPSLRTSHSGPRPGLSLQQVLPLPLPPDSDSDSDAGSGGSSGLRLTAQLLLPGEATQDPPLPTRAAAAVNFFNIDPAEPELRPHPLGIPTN

Row | Compound | IC50 [1] | Ki [1] | IC50 (Glucocorticoid receptor) | IC50 [2] | IC50 ([3]; hela) | IC50 (Mu-type opioid receptor; cho-k1) | IC50 [4] | IC50 ([5]; reticulocytes) | IC50 ([3]; read-out: IC50) | Ki ([3]; read-out: Ki) | Ki (Mu-type opioid receptor) | IC50 (Mu-type opioid receptor; read-out: IC50) | IC50 ([4]; read-out: IC50) | IC50 ([5]; read-out: IC50)
1 | CCN(CC)CCCC(C)Nc1c2ccc(Cl)cc2nc2ccc(OC)cc12 (centres undefined) [QUINACRINE] | Not Active | Not Active | Not Active | Not Active | Not Active | Not Active | Not Active | Not Active | – | – | – | – | – | –
2 | CC[C@H]1[C@@H]2C[C@H]3[C@@H]4N(C)c5ccccc5[C@]45C[C@@H]([C@@H]2[C@H]5O)N3[C@@H]1O [AJMALINE] | Not Active | Not Active | Not Active | Not Active | Not Active | Not Active | Not Active | Not Active | – | – | – | – | – | –
3 | C[C@H]1[C@H](NC(=O)/C(=N\OC(C)(C)C(=O)O)c2csc(N)n2)C(=O)N1S(=O)(=O)O [AZTREONAM] | Not Active | Not Active | Not Active | Not Active | Not Active | Not Active | Not Active | Not Active | – | – | – | – | – | –
4 | CO/N=C(\C(=O)N[C@@H]1C(=O)N2C(C(=O)O)=C(COC(C)=O)CS[C@H]12)c1csc(N)n1 [CEFOTAXIME] | Not Active | Not Active | Not Active | Not Active | Not Active | Not Active | Not Active | Not Active | – | – | – | – | – | –
5 | CC(C)c1c(C(=O)Nc2ccccc2)c(-c2ccccc2)c(-c2ccc(F)cc2)n1CC[C@@H](O)C[C@@H](O)CC(=O)O [ATORVASTATIN] | Not Active | Not Active | Not Active | Not Active | Not Active | Not Active | Not Active | Not Active | – | – | – | – | – | –
6 | CC(C)C[C@H]1C(=O)N2CCC[C@H]2[C@]2(O)O[C@](NC(=O)[C@@H]3C=C4c5cccc6[nH]cc(c56)C[C@H]4N(C)C3)(C(C)C)C(=O)N12 [ERGOCRYPTINE] | Not Active | Not Active | Not Active | Not Active | – | – | Not Active | Not Active | 16 nM | 7.56 nM | 985 nM | 2430 nM | – | –
7 | N[C@@H](Cn1ccc(=O)c(O)c1)C(=O)O [L-MIMOSINE] | Not Active | Not Active | Not Active | Not Active | Not Active | Not Active | Not Active | Not Active | – | – | – | – | – | –
8 | Nc1cc(-c2ccncc2)c[nH]c1=O [INAMRINONE] | Not Active | Not Active | Not Active | Not Active | Not Active | Not Active | Not Active | Not Active | – | – | – | – | – | –
9 | NC(=O)c1cccc(N)c1 [3-AMINOBENZAMIDE] | Not Active | Not Active | Not Active | Not Active | Not Active | Not Active | Not Active | Not Active | – | – | – | – | – | –
10 | NC(=O)c1cccnc1 [NIACINAMIDE] | Not Active | Not Active | Not Active | Not Active | Not Active | Not Active | Not Active | Not Active | – | – | – | – | – | –
11 | CCC1=C(C)CN(C(=O)NCCc2ccc(S(=O)(=O)NC(=O)N[C@H]3CC[C@H](C)CC3)cc2)C1=O [GLIMEPIRIDE] | Not Active | Not Active | Not Active | Not Active | Not Active | Not Active | Not Active | Not Active | – | – | – | – | – | –
12 | COc1cccc2c1C(=O)c1c(O)c3c(c(O)c1C2=O)C[C@@](O)(C(C)=O)C[C@@H]3O[C@H]1C[C@H](N)[C@H](O)[C@H](C)O1 [DAUNORUBICIN] | Not Active | Not Active | Not Active | Not Active | Not Active | Not Active | Not Active | Not Active | – | – | – | – | – | –
13 | CC[C@]1(O)C[C@@H]2CN(CCc3c([nH]c4ccccc34)[C@@](C(=O)OC)(c3cc4c(cc3OC)N(C)[C@H]3[C@@](O)(C(N)=O)[C@H](O)[C@]5(CC)C=CCN6CC[C@]43[C@@H]65)C2)C1 [VINDESINE] | Not Active | Not Active | Not Active | Not Active | Not Active | Not Active | Not Active | Not Active | – | – | – | – | – | –
14 | CCOc1nc2cccc(C(=O)O)c2n1Cc1ccc(-c2ccccc2-c2nnn[nH]2)cc1 | Not Active | Not Active | Not Active | Not Active | Not Active | Not Active | Not Active | Not Active | – | – | – | – | – | –
15 | C[S+](C)[O-] [DIMETHYL SULFOXIDE] | Not Active | Not Active | Not Active | Not Active | Not Active | Not Active | Not Active | Not Active | – | – | – | – | – | –
16 | O=C(c1ccccc1F)N1CCC(Cc2ccccc2)CC1 | Not Active | Not Active | Not Active | Not Active | Not Active | Not Active | – | Not Active | – | – | – | – | 537 nM | –
17 | O=C(O)CCNC(=O)c1ccc(/N=N/c2ccc(O)c(C(=O)O)c2)cc1 [BALSALAZIDE] | Not Active | Not Active | Not Active | Not Active | Not Active | Not Active | Not Active | Not Active | – | – | – | – | – | –
18 | N=C(N)c1ccc(OCCCCCOc2ccc(C(=N)N)cc2)cc1 [PENTAMIDINE] | Not Active | Not Active | Not Active | Not Active | Not Active | Not Active | Not Active | Not Active | – | – | – | – | – | –
19 | CN1C(=O)CN=C(c2ccccc2)c2cc([N+](=O)[O-])ccc21 [NIMETAZEPAM] | Not Active | Not Active | Not Active | Not Active | Not Active | Not Active | Not Active | Not Active | – | – | – | – | – | –
20 | NS(=O)(=O)c1cc(C2(O)NC(=O)c3ccccc32)ccc1Cl (centres undefined) [CHLORTHALIDONE] | Not Active | Not Active | Not Active | Not Active | Not Active | Not Active | Not Active | Not Active | – | – | – | – | – | –
21 | O=c1c(-c2ccc(O)cc2)coc2cc(O)cc(O)c12 [GENISTEIN] | Not Active | Not Active | Not Active | Not Active | Not Active | Not Active | Not Active | – | – | – | – | – | – | 9030 nM
22 | CN1C[C@@H]2C[C@H]1CN2c1cc2c(cc1F)c(=O)c(C(=O)O)cn2C1CC1 [DANOFLOXACIN] | Not Active | Not Active | Not Active | Not Active | Not Active | Not Active | Not Active | Not Active | – | – | – | – | – | –
23 | CN1CCN(c2c(F)cc3c(=O)c(C(=O)O)cn(CCF)c3c2F)CC1 [FLEROXACIN] | Not Active | Not Active | Not Active | Not Active | Not Active | Not Active | Not Active | Not Active | – | – | – | – | – | –
24 | CC(C)(C(=O)O)c1ccc(C(O)CCCN2CCC(C(O)(c3ccccc3)c3ccccc3)CC2)cc1 (centres undefined) [FEXOFENADINE] | Not Active | Not Active | Not Active | Not Active | Not Active | Not Active | Not Active | Not Active | – | – | – | – | – | –
